Literature values, collected in patent CN101444491A, “奥扎格雷钠微球冻干制剂及其制备方法” (HAINAN SHU ER PHARMACEUTICAL RESEARCH Co Ltd, priority 2008, dated 2009).

Tests used:
[1] = after conversion into sodium salt (JP2001316265)

Row | SMILES | solubility in water | stability in aqueous solution [1]
1 | O=C(O)/C=C/c1ccc(Cn2ccnc2)cc1 [奥扎格雷] | 溶解度较小 | –
2 | O=C(O)/C=C/c1ccc(Cn2ccnc2)cc1 [奥扎格雷钠, 钠盐] | – | 稳定性下降
